How the values were obtained:
[1] = system: Kaolin/Carrageenan induzierte Kniegelenksentzündung bei der Ratte; test: Model 2: kaolin/carrageenan-induced knee joint inflammation, responses of spinal neurons to pressure on the knee; format: in vivo
From the text: Modell: Zymosan-induzierte Pfotenentzündung bei der Ratte; Parameter: Pfotenwegziehzeit oder Pfotenwegziehschwelle bei thermischer oder mechanischer Stimulation der Hinterpfote. • 2. Modell: Kaolin/Carrageenan induzierte Kniegelenksentzündung bei der Ratte; Parameter: Reaktion spinaler Neurone bei Druckreizung des Knies.
Versuchsdurchführung: Bei Ratten wurde in Trapanal-Narkose der Wirbelkanal eröffnet und Rückenmarksneurone, die "Schmerzimpulse" aus dem Kniegelenk verarbeiteten, identifiziert. Nach Identifizierung wurde eine Langzeitableitung durchgeführt, in der die Aktivität der Nervenzelle vor und während der Entwicklung einer akuten Entzündung im Kniegelenk registriert wurde. Dazu wurden in einer Kontrollperiode vor Induktion der Entzündung und nach Induktion der Entzündung für mehrere Stunden die Antworten auf nicht noxische und noxische Reizung am Kniegelenk gemessen.
Die akute Entzündung wurde durch die intraartikuläre Injektion einer Kaolin und Carrageenan Suspension (etwa 150 µl) induziert. In Kontrollexperimenten wurde nur das Vehikel auf die Rückenmarksoberfläche aufgebracht, um die Entwicklung der Übererregbarkeit unter Kontrollbedingungen darzustellen. In der Regel fand diese Entwicklung der Übererregbarkeit innerhalb von 2 bis 4 Stunden statt, und sie äußerte sich in einer starken Zunahme der Antworten auf nicht noxische und noxische Reizung des Kniegelenks (Tab. 3). […] Dann wurden die Antworten der Zelle auf nichtnoxische und noxische Reizung wie in den Kontrollexperimenten weiter verfolgt.

[2] = system: Zymosan-induzierte Pfotenentzündung bei der Maus; test: Model 3: zymosan-induced paw inflammation, paw withdrawal latency on thermal stimulation (Hargreaves Test), AUC; format: in vivo; details: for AUC Mittelwert [Maß für Hyperalgesie]: thermische Hyperalgesie
Experimental: Parameter: Pfotenwegziehzeit bei thermischer Stimulation der Hinterpfote. Versuchsdurchführung: In Kurzzeitnarkose mit Isofluran wurde dem Versuchstier 25 μl einer Suspension, die 50 mg/ml Zymosan enthielt, in die rechte Hinterpfote injiziert. Dann wurde die […] quantitativ wie folgt bestimmt: Bestimmung der Pfotenwegziehzeit bei thermischer Stimulation (Hargreaves Test; s.o.). Das Versuchstier wurde in […] Versuchstier nach der Erkundungsphase (etwa 5 min) nicht mehr bewegte, wurde […] zu stimulierenden Hinterpfote positioniert und […]. Die […] ab, so dass die Hauttemperatur […] linear […] Pfote […] ab. Die Pfotentemperatur zum Zeitpunkt des Wegziehens ist für das Tier gerade eben unangenehm, […] von thermischer Schmerzschwelle. Kurz vor Zymosan-Injektion und für 7 bis 14 Tage nach Injektion wurde […] an der rechten und linken Hinterpfote bestimmt. Anschließend wurde […] Integral der Fläche, die aus […] und […] Pfote gebildet wurde, bestimmt (AUC, area between the curves, s. Tabellen 5 und 6). Je größer dieser Wert ist, umso […], und je kleiner der Wert bei Tieren, die die Substanz erhalten, desto stärker ist der Therapieerfolg. In einer 7-Tage Studie induzierte die Zymosan Injektion in […], Tab. 5). In den anderen Gruppen wurde die Substanzgabe einen Tag nach Zymosan Injektion, […] schon […]. […] Die […] Studie (7 Tage) ergab, dass die AUC unter Substanzgabe dosisabhängig abnahm. […] In einer parallel […] von Tieren wurde Paracetamol in einer sehr hohen Dosis ebenfalls zweimal am Tag verabreicht. […] Paracetamol (Tab. 5). […] […] Zymosan Injektion und Dosierschema […] zuvor beschriebenen Studie. Einziger Unterschied war, dass die weitere Studie über 14 Tage lief.

[3] = system: Zymosan-induzierte Pfotenentzündung bei der Maus; test: Model 4: zymosan-induced paw inflammation, spontaneous running wheel performance, AUC; format: in vivo, C57/B6 Mäuse
From the text: Das Versuchstier hat in seinem Haltungskäfig Zugang zu einem Laufrad, dessen Umdrehungen elektronisch registriert werden. Die C57/B6 Mäuse benutzen in den Nachtstunden freiwillig das Laufrad und legen im Mittel nach einer einwöchigen Gewöhnungsphase 4100 Meter/Nacht zurück. Nach Zymosan Injektion ist die nächtliche Laufstrecke verkürzt. Diese Abnahme der Laufleistung gilt als Parameter für entzündungsschmerzbedingte Funktionseinschränkung. Versuchsdurchführung: Die Laufstrecke/24 Std. wurde nach einer Eingewöhnungsphase eine Woche lang zur Bestimmung der Baseline gemessen. Dann wurde in Kurzzeitnarkose mit Isofluran dem Versuchstier 25 µl einer Suspension, die […] Zymosan enthielt, in die rechte Hinterpfote injiziert. Anschließend wurde Laufstrecke/24 Std. während der nächsten sieben Tage ermittelt. In der Auswertung wurde die Fläche unter der Kurve der Laufstreckenwerte bestimmt (AUC, Tab. 7): je kleiner die AUC, desto geringer die Laufleistung in der Woche nach Zymosan Injektion. […] Die Substanzgabe wurde am Tag 1 nach Zymosan Injektion begonnen.

[4] = Versuch 1, 30-60 min nach K/C-Injektion
[5] = Versuch 1, 60-120 min nach K/C-Injektion
[6] = Versuch 1, 120-180 min nach K/C-Injektion
[7] = Versuch 2, 30-60 min nach K/C-Injektion
[8] = Versuch 2, 120-180 min nach K/C-Injektion
[9] = Versuch 2, 180-240 min nach K/C-Injektion
[10] = 7 days after Zymosan, 200 mg/kg twice daily

2-(2-Methylamino-pyrimidin-4-yl)-1 H-benzoimidazol-5-carbonsäure ((S)1-carbamoyl-2- diphenylamin-ethyl)-amid [Verbindung 22]
Wirkung im Modell 2 [1]: gute Wirkung
Neuronale Antworten vor und während Kniegelenksentzündung, Nicht-noxische Reizung am Kniegelenk [1, 4]: -34,1 imp/15s
Neuronale Antworten vor und während Kniegelenksentzündung, Noxische Reizung am Kniegelenk [1, 4]: -109,1 imp/15s
Neuronale Antworten vor und während Kniegelenksentzündung, Nicht-noxische Reizung am Kniegelenk [1, 5]: -37,2 imp/15s
Neuronale Antworten vor und während Kniegelenksentzündung, Noxische Reizung am Kniegelenk [1, 5]: -101,1 imp/15s
Neuronale Antworten vor und während Kniegelenksentzündung, Nicht-noxische Reizung am Kniegelenk [1, 6]: -32,1 imp/15s
Neuronale Antworten vor und während Kniegelenksentzündung, Noxische Reizung am Kniegelenk [1, 6]: -37,8 imp/15s
Neuronale Antworten vor und während Kniegelenksentzündung, Nicht-noxische Reizung am Kniegelenk ([1]; Versuch 1, Baseline): 0 imp/15s
Neuronale Antworten vor und während Kniegelenksentzündung, Noxische Reizung am Kniegelenk ([1]; Versuch 1, Baseline): 0 imp/15s
Neuronale Antworten vor und während Kniegelenksentzündung, Nicht-noxische Reizung am Kniegelenk [1, 7]: -30,6 imp/15s
Neuronale Antworten vor und während Kniegelenksentzündung, Noxische Reizung am Kniegelenk [1, 7]: -9,2 imp/15s
Neuronale Antworten vor und während Kniegelenksentzündung, Nicht-noxische Reizung am Kniegelenk [1, 8]: 50,3 imp/15s
Neuronale Antworten vor und während Kniegelenksentzündung, Noxische Reizung am Kniegelenk [1, 8]: 60 imp/15s
Neuronale Antworten vor und während Kniegelenksentzündung, Nicht-noxische Reizung am Kniegelenk [1, 9]: 68,7 imp/15s
Neuronale Antworten vor und während Kniegelenksentzündung, Noxische Reizung am Kniegelenk [1, 9]: 96,7 imp/15s
Neuronale Antworten vor und während Kniegelenksentzündung, Nicht-noxische Reizung am Kniegelenk ([1]; Versuch 2, Baseline): 0 imp/15s
Neuronale Antworten vor und während Kniegelenksentzündung, Noxische Reizung am Kniegelenk ([1]; Versuch 2, Baseline): 0 imp/15s

Cc1ccc(-c2cc(C(F)(F)F)nn2-c2ccc(S(N)(=O)=O)cc2)cc1 [Celecoxib, reference compound]
AUC Mittelwert [Maß für Hyperalgesie] ([2]; 14 days after Zymosan, 25 mg/kg twice daily): 51.5

CC(=O)Nc1ccc(O)cc1 [Paracetamol, reference compound]
AUC Mittelwert (Laufradaktivität) [3, 10]: 187.2
Laufleistung nach Zymosan Injektion gegenüber der Vehikelgruppe ([3]; 7 days, twice daily): keine Verbesserung gegenüber der Vehikelgruppe
Statistischer Unterschied gegenüber Vehikel ([3]; Laufradaktivität AUC, 7 days, 200 mg/kg twice daily): nein
Statistischer Unterschied gegenüber Vehikel ([2]; thermische Hyperalgesie AUC, 7 days, 200 mg/kg twice daily): ja
AUC Mittelwert [Maß für Hyperalgesie] [2, 10]: 24.6

Reference: patent EP1531819B1, “USE OF I kappa B KINASE INHIBITORS FOR THE TREATMENT OF PAIN” (Sanofi-Aventis Deutschland GmbH, priority 2002, dated 2004)
